Values joined by “and” are separate entries in the source; they are usually repeats but may differ in a detail not shown here. Equal entries are not always repeated.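 Values below derive from 48-hour exposures of cells grown in 96-well plates, with endpoints linearly interpolated between the two concentrations bracketing the appropriate inhibition level. GI50 is the concentration that inhibits growth by half.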 Active and inactive are the calls of the source. Cut-off read from the data, not from the text of the source: active = GI50 up to about 1.1 µM and inactive = higher.
Key:
Assay in all cases: inhibition of tumour cell growth, NCI panel, 48 h
MOLT-4 = tested on: MOLT-4
786-0 = tested on: 786-0
SF-268 = tested on: SF-268
CCRF-CEM = tested on: CCRF-CEM
SK-OV-3 = tested on: SK-OV-3
SNB-75 = tested on: SNB-75
OVCAR-4 = tested on: OVCAR-4
EKVX = tested on: EKVX
HOP-92 = tested on: HOP-92
OVCAR-5 = tested on: OVCAR-5
NCI/ADR-RES = tested on: NCI/ADR-RES
NCI-H460 = tested on: NCI-H460
Hs-578T = tested on: Hs-578T
U-251 = tested on: U-251
RPMI-8226 = tested on: RPMI-8226
TK-10 = tested on: TK-10
LOX IMVI = tested on: LOX IMVI
T47D = tested on: T47D
M14 = tested on: M14
OVCAR-3 = tested on: OVCAR-3

**Q.** What does the source list for `S=C1/C(=N/c2ccccc2)N(c2ccccc2)/C(=N\c2ccccn2)N1c1ccccc1`?
**A.** GI50 (MOLT-4): > 100 µM (inactive); GI50 (786-0): 14.5 µM (inactive); GI50 (SF-268): 16.6 µM (inactive); GI50 (CCRF-CEM): > 100 µM (inactive); GI50 (SK-OV-3): 19.9 µM (inactive); GI50 (SNB-75): 14.7 µM (inactive); GI50 (OVCAR-4): 14.6 µM (inactive); GI50 (EKVX): 13.5 µM (inactive); GI50 (HOP-92): 13 µM (inactive); GI50 (OVCAR-5): 16.4 µM (inactive); GI50 (NCI/ADR-RES): 16.7 µM (inactive); GI50 (NCI-H460): 13.6 µM (inactive); GI50 (Hs-578T): 14.9 µM (inactive); GI50 (U-251): 15.8 µM (inactive); GI50 (RPMI-8226): 6.78 µM (inactive); GI50 (TK-10): 15.5 µM (inactive); GI50 (LOX IMVI): 6.61 µM (inactive); GI50 (T47D): 15 µM (inactive)

**Q.** How did the GI50 (M14) turn out when `O=c1[nH]cc(/C=N\Nc2ccccc2)c(=O)[nH]1` was run?
**A.** > 100 µM (inactive)

**Q.** What about the GI50 (786-0) of the same compound?
**A.** > 100 µM (inactive)

**Q.** And the GI50 (SF-268)?
**A.** > 100 µM (inactive)

**Q.** And the GI50 (CCRF-CEM)?
**A.** > 100 µM (inactive)

**Q.** And the GI50 (SK-OV-3)?
**A.** > 100 µM (inactive)

**Q.** What about the GI50 (SNB-75) of the same compound?
**A.** > 100 µM (inactive)

**Q.** And the GI50 (OVCAR-4)?
**A.** > 100 µM (inactive)

**Q.** And the GI50 (EKVX)?
**A.** > 100 µM (inactive)

**Q.** What about the GI50 (HOP-92) of the same compound?
**A.** > 100 µM (inactive)

**Q.** And the GI50 (OVCAR-5)?
**A.** > 100 µM (inactive)

**Q.** And the GI50 (NCI/ADR-RES)?
**A.** > 100 µM (inactive)

**Q.** And the GI50 (NCI-H460)?
**A.** 47.8 µM (inactive)

**Q.** What about the GI50 (Hs-578T) of the same compound?
**A.** > 100 µM (inactive)

**Q.** And the GI50 (U-251)?
**A.** > 100 µM (inactive)

**Q.** What about the GI50 (RPMI-8226) of the same compound?
**A.** > 100 µM (inactive)

**Q.** What about the GI50 (TK-10) of the same compound?
**A.** > 100 µM (inactive)

**Q.** What about the GI50 (LOX IMVI) of the same compound?
**A.** 6.14 µM (inactive)

**Q.** And the GI50 (OVCAR-3)?
**A.** 21.8 µM (inactive)

**Q.** And the GI50 (T47D)?
**A.** 9.23 µM (inactive)

**Q.** How did the GI50 (M14) turn out when `Cc1ccc(-n2cnc3c(N)nc(N)nc32)cc1` was run?
**A.** > 100 µM (inactive)

**Q.** What about the GI50 (MOLT-4) of the same compound?
**A.** 44.7 µM (inactive)

**Q.** And the GI50 (786-0)?
**A.** > 100 µM (inactive)

**Q.** And the GI50 (SF-268)?
**A.** > 100 µM (inactive)

**Q.** What about the GI50 (CCRF-CEM) of the same compound?
**A.** 43.1 µM (inactive)

**Q.** What about the GI50 (SK-OV-3) of the same compound?
**A.** > 100 µM (inactive)

**Q.** What about the GI50 (SNB-75) of the same compound?
**A.** 1.53 µM (inactive)

**Q.** What about the GI50 (OVCAR-4) of the same compound?
**A.** > 100 µM (inactive)

**Q.** And the GI50 (EKVX)?
**A.** 81.5 µM (inactive)

**Q.** And the GI50 (HOP-92)?
**A.** > 100 µM (inactive)

**Q.** What about the GI50 (OVCAR-5) of the same compound?
**A.** > 100 µM (inactive)

**Q.** What about the GI50 (NCI/ADR-RES) of the same compound?
**A.** > 100 µM (inactive)

**Q.** And the GI50 (Hs-578T)?
**A.** 42.7 µM (inactive)

**Q.** What about the GI50 (U-251) of the same compound?
**A.** > 100 µM (inactive)

**Q.** What about the GI50 (RPMI-8226) of the same compound?
**A.** > 100 µM (inactive)

**Q.** And the GI50 (TK-10)?
**A.** 65.6 µM (inactive)

**Q.** And the GI50 (LOX IMVI)?
**A.** > 100 µM (inactive)

**Q.** What about the GI50 (OVCAR-3) of the same compound?
**A.** > 100 µM (inactive)

**Q.** What about the GI50 (T47D) of the same compound?
**A.** > 100 µM (inactive)

**Q.** What does the source list for `COc1ccc(/C=C(\C#N)c2nc(-c3cc4ccccc4oc3=O)cs2)cc1`?
**A.** GI50 (M14): 24.8 µM (inactive); GI50 (MOLT-4): > 100 µM (inactive); GI50 (786-0): 19.3 µM (inactive); GI50 (SF-268): 17.9 µM (inactive); GI50 (CCRF-CEM): > 100 µM (inactive); GI50 (SK-OV-3): 16.4 µM (inactive); GI50 (SNB-75): 23.2 µM (inactive); GI50 (OVCAR-4): 23.9 µM (inactive); GI50 (EKVX): 35 µM (inactive); GI50 (HOP-92): 18.3 µM (inactive); GI50 (OVCAR-5): 51.1 µM (inactive); GI50 (NCI/ADR-RES): 27.2 µM (inactive); GI50 (NCI-H460): 21.4 µM (inactive); GI50 (Hs-578T): 24.6 µM (inactive); GI50 (U-251): 13.5 µM (inactive); GI50 (RPMI-8226): 42.9 µM (inactive); GI50 (TK-10): 26.2 µM (inactive); GI50 (LOX IMVI): 30.5 µM (inactive); GI50 (T47D): 52.5 µM (inactive)

**Q.** With `C=C1C(=O)OC2CC1C(OC(C)=O)C/C(C)=C/CC/C(C)=C\CCC2(C)O` (configuration not stated) as the compound, how does the GI50 (M14) read?
**A.** 5.83 µM (inactive) and 6.1 µM (inactive)

**Q.** And the GI50 (MOLT-4)?
**A.** 2.22 µM (inactive) and 1.88 µM (inactive)

**Q.** And the GI50 (786-0)?
**A.** 3.24 µM (inactive) and 2.6 µM (inactive)

**Q.** What about the GI50 (SF-268) of the same compound?
**A.** 5.24 µM (inactive) and 5.45 µM (inactive)

**Q.** What about the GI50 (SK-OV-3) of the same compound?
**A.** 19.5 µM (inactive) and 24.5 µM (inactive)

**Q.** And the GI50 (SNB-75)?
**A.** 11.2 µM (inactive) and 10.8 µM (inactive)

**Q.** What about the GI50 (OVCAR-4) of the same compound?
**A.** 6.35 µM (inactive) and 5.73 µM (inactive)

**Q.** And the GI50 (EKVX)?
**A.** 3.81 µM (inactive) and 3.73 µM (inactive)

**Q.** What about the GI50 (HOP-92) of the same compound?
**A.** 3.65 µM (inactive) and 2.89 µM (inactive)

**Q.** What about the GI50 (OVCAR-5) of the same compound?
**A.** 10.9 µM (inactive) and 16.5 µM (inactive)

**Q.** What about the GI50 (NCI/ADR-RES) of the same compound?
**A.** 3.66 µM (inactive) and 3.49 µM (inactive)

**Q.** And the GI50 (NCI-H460)?
**A.** 2.11 µM (inactive) and 3.41 µM (inactive)

**Q.** And the GI50 (Hs-578T)?
**A.** 5.87 µM (inactive) and 3.79 µM (inactive)

**Q.** And the GI50 (U-251)?
**A.** 10.7 µM (inactive) and 10.3 µM (inactive)

**Q.** What about the GI50 (RPMI-8226) of the same compound?
**A.** 1.9 µM (inactive) and 1.82 µM (inactive)

**Q.** What about the GI50 (TK-10) of the same compound?
**A.** 4.37 µM (inactive) and 3.66 µM (inactive)

**Q.** And the GI50 (LOX IMVI)?
**A.** 2.46 µM (inactive) and 2.14 µM (inactive)

**Q.** And the GI50 (OVCAR-3)?
**A.** 5.93 µM (inactive) and 4.35 µM (inactive)

**Q.** And the GI50 (T47D)?
**A.** 3.4 µM (inactive) and 4.56 µM (inactive)

**Q.** For `CCc1nc(N)nc(N)c1-c1ccc(Cl)c(Cl)c1` [ETOPRINE], which GI50 (M14) is on record?
**A.** 0.675 µM (active)

**Q.** What about the GI50 (786-0) of the same compound?
**A.** 0.653 µM (active)

**Q.** What about the GI50 (SF-268) of the same compound?
**A.** 6.62 µM (inactive)

**Q.** And the GI50 (CCRF-CEM)?
**A.** > 100 µM (inactive)

**Q.** And the GI50 (SK-OV-3)?
**A.** > 100 µM (inactive)

**Q.** And the GI50 (SNB-75)?
**A.** 35.1 µM (inactive)

**Q.** And the GI50 (OVCAR-4)?
**A.** > 100 µM (inactive)

**Q.** What about the GI50 (EKVX) of the same compound?
**A.** 20.9 µM (inactive)

**Q.** What about the GI50 (HOP-92) of the same compound?
**A.** 13.3 µM (inactive)

**Q.** And the GI50 (OVCAR-5)?
**A.** 7.06 µM (inactive)

**Q.** What about the GI50 (NCI/ADR-RES) of the same compound?
**A.** 1.47 µM (inactive)

**Q.** And the GI50 (NCI-H460)?
**A.** 0.506 µM (active)

**Q.** What about the GI50 (Hs-578T) of the same compound?
**A.** 43 µM (inactive)

**Q.** What about the GI50 (U-251) of the same compound?
**A.** 2.79 µM (inactive)

**Q.** And the GI50 (RPMI-8226)?
**A.** 9.71 µM (inactive)

**Q.** What about the GI50 (TK-10) of the same compound?
**A.** 36.1 µM (inactive)

**Q.** And the GI50 (LOX IMVI)?
**A.** 3.51 µM (inactive)

**Q.** What about the GI50 (OVCAR-3) of the same compound?
**A.** 24.9 µM (inactive)

**Q.** What about the GI50 (T47D) of the same compound?
**A.** > 100 µM (inactive)

**Q.** `Cc1ccc([N+](=O)[O-])cc1S(=O)(=O)Nc1ccc(C(=O)/C=C/c2ccccc2)cc1` was tested. Which GI50 (M14) did it give?
**A.** 20 µM (inactive)

**Q.** And the GI50 (MOLT-4)?
**A.** 4.51 µM (inactive)

**Q.** What about the GI50 (786-0) of the same compound?
**A.** 16.7 µM (inactive)

**Q.** And the GI50 (SF-268)?
**A.** 24.3 µM (inactive)

**Q.** What about the GI50 (CCRF-CEM) of the same compound?
**A.** 20 µM (inactive)

**Q.** And the GI50 (SK-OV-3)?
**A.** 31.3 µM (inactive)

**Q.** What about the GI50 (SNB-75) of the same compound?
**A.** 17.3 µM (inactive)

**Q.** What about the GI50 (OVCAR-4) of the same compound?
**A.** 1.96 µM (inactive)

**Q.** And the GI50 (EKVX)?
**A.** 18 µM (inactive)

**Q.** What about the GI50 (HOP-92) of the same compound?
**A.** 15.9 µM (inactive)

**Q.** And the GI50 (OVCAR-5)?
**A.** 25.6 µM (inactive)

**Q.** What about the GI50 (NCI/ADR-RES) of the same compound?
**A.** 22 µM (inactive)

**Q.** What about the GI50 (NCI-H460) of the same compound?
**A.** 18.1 µM (inactive)

**Q.** And the GI50 (Hs-578T)?
**A.** 50.6 µM (inactive)

**Q.** What about the GI50 (RPMI-8226) of the same compound?
**A.** 11.5 µM (inactive)

**Q.** What about the GI50 (TK-10) of the same compound?
**A.** 31.3 µM (inactive)

**Q.** And the GI50 (LOX IMVI)?
**A.** 19 µM (inactive)

**Q.** And the GI50 (OVCAR-3)?
**A.** 15.7 µM (inactive)

**Q.** And the GI50 (T47D)?
**A.** 16.3 µM (inactive)
